Experimental data reported in patent US12024500B2, “Five-membered ring-substituted pyridazinol compounds and derivatives, preparation methods, herbicidal compositions and applications thereof” (Qingdao Kingagroot Chemical Compound Co., Ltd., priority 2018, dated 2024).

Columns and labels:
Assay type in all cases: in vivo
Amaranthus retroflexus = assay: Post-emergence weed control test (greenhouse pot, spray); details: 3 weeks after spraying; for inhibition at 2000 g/ha: Amaranthus retroflexus, 504 h, read-out: weed control effect (activity level, fresh weight growth inhibition rate), Amaranthus retroflexus; for weed control effect (activity level, fresh weight growth inhibition rate), Amaranthus retroflexus: 3000 g/ha
Text: (§1) The activity level standard of harmful plant destruction (i.e. growth inhibition rate) is as follows: • Level 10: completely dead; • Level 9: above 90% growth inhibition rate; • Level 8: above 80% growth inhibition rate; • Level 7: above 70% growth inhibition rate; • Level 6: above 60% growth inhibition rate; • Level 5: above 50% growth inhibition rate; • Level 4: above 40% growth inhibition rate; • Level 3: above 30% growth inhibition rate; • Level 2: above 20% growth inhibition rate; • Level 1: below 20% growth inhibition rate; • Level 0: no effect.
(§2) The above described growth inhibition rates are fresh weight inhibition rates.
(§3) Experiment of post-emergence test: monocotyledonous and dicotyledonous weed seeds as well as main crop seeds (i.e., wheat, corn, rice, soybean, cotton, oilseed rape, millet and sorghum) were put into a plastic pot loaded with soil, then covered with 0.5-2 cm of soil, and the seeds were allowed to grow in good greenhouse environment. The test plants were treated at 4-5 leaf stage 2-3 weeks after sowing. The test compounds of the invention were dissolved in acetone respectively, then added with Tween-80 and diluted by a certain amount of water to give solutions with certain concentrations. The solution was sprayed to the plants with a sprayer. The plants were cultured for 3 weeks in the greenhouse.

Chenopodiaceae = assay: as above; details: 3 weeks after spraying; for inhibition at 2000 g/ha: 504 h, read-out: weed control effect (activity level, fresh weight growth inhibition rate), Chenopodiaceae; for weed control effect (activity level, fresh weight growth inhibition rate), Chenopodiaceae: 3000 g/ha
Text: as §1, §2, §3

Setaria viridis = assay: as above; details: 3 weeks after spraying; for inhibition at 2000 g/ha: Setaria viridis, 504 h, read-out: weed control effect (activity level, fresh weight growth inhibition rate), Setaria viridis; for weed control effect (activity level), Setaria viridis, comparison experiment: 300 g/ha
Text: as §1, §2, §3

Veronica polita = assay: as above; details: 3 weeks after spraying; for inhibition at 2000 g/ha: Veronica polita, 504 h, read-out: weed control effect (activity level, fresh weight growth inhibition rate), Veronica polita; for weed control effect (activity level), Veronica polita, comparison experiment: 300 g/ha; for weed control effect (activity level, fresh weight growth inhibition rate), Veronica polita: 3000 g/ha
Text: as §1, §2, §3

Rorippa indica = assay: as above; details: 3 weeks after spraying; for weed control effect (activity level), Rorippa indica, comparison experiment: 300 g/ha; for weed control effect (activity level, fresh weight growth inhibition rate), Rorippa indica: 3000 g/ha
Text: as §1, §2, §3

Digitaria sanguinalis = assay: Post-emergence weed control test (comparative experiment); details: 300 g/ha, 3 weeks after spraying
Text: as §1, §2, §3

Echinochloa crus-galli = assay: as above; details: 300 g/ha, 3 weeks after spraying
Text: as §1, §2, §3

SMILES	weed control effect (activity level, fresh weight growth inhibition rate), Amaranthus retroflexus (Amaranthus retroflexus)	weed control effect (activity level, fresh weight growth inhibition rate), Chenopodiaceae (Chenopodiaceae)	weed control effect (activity level, fresh weight growth inhibition rate), Rorippa indica (Rorippa indica)	weed control effect (activity level, fresh weight growth inhibition rate), Veronica polita (Veronica polita)	other results
Cc1cc(-c2nnc(Cl)cc2OC(=O)N2CCOCC2)n(C)n1 [Compound 1-9]					inhibition at 2000 g/ha (Amaranthus retroflexus): 100%; inhibition at 2000 g/ha (Chenopodiaceae): 100%; inhibition at 2000 g/ha (Setaria viridis): 100%; inhibition at 2000 g/ha (Veronica polita): 100%
Cn1nccc1-c1nnc(Cl)cc1O [Compound 29]	10 (Level 10: completely dead)	10 (Level 10: completely dead)	10 (Level 10: completely dead)	10 (Level 10: completely dead)	weed control effect (activity level), Rorippa indica, comparison experiment (Rorippa indica): 10; weed control effect (activity level), Setaria viridis, comparison experiment (Setaria viridis): 10; weed control effect (activity level), Veronica polita, comparison experiment (Veronica polita): 9 (Level 9: above 90% growth inhibition rate); weed control effect (activity level), Digitaria sanguinalis, comparison experiment (Digitaria sanguinalis): 6 (Level 6: above 60% growth inhibition rate); weed control effect (activity level), Echinochloa crus-galli, comparison experiment (Echinochloa crus-galli): 8 (Level 8: above 80% growth inhibition rate)
Oc1cc(Cl)nnc1-c1ccccc1 [Control Compound A, reference compound]					weed control effect (activity level), Rorippa indica, comparison experiment (Rorippa indica): 2 (Level 2: above 20% growth inhibition rate); weed control effect (activity level), Setaria viridis, comparison experiment (Setaria viridis): 2 (Level 2: above 20% growth inhibition rate); weed control effect (activity level), Veronica polita, comparison experiment (Veronica polita): 5 (Level 5: above 50% growth inhibition rate); weed control effect (activity level), Digitaria sanguinalis, comparison experiment (Digitaria sanguinalis): 0; weed control effect (activity level), Echinochloa crus-galli, comparison experiment (Echinochloa crus-galli): 0
Cn1nc(C2CC2)cc1-c1nnc(Cl)cc1O [Compound 61]	10 (Level 10: completely dead)	10 (Level 10: completely dead)	10 (Level 10: completely dead)	10 (Level 10: completely dead)	
Cn1ncc(I)c1-c1nnc(Cl)cc1O [Compound 79]	10 (Level 10: completely dead)	10 (Level 10: completely dead)	10 (Level 10: completely dead)	10 (Level 10: completely dead)	
Cc1cc(-c2nnc(Cl)cc2OC(=S)Oc2cccs2)n(C)n1 [Compound 1-5]					inhibition at 2000 g/ha (Amaranthus retroflexus): 100%; inhibition at 2000 g/ha (Chenopodiaceae): 100%; inhibition at 2000 g/ha (Setaria viridis): 100%; inhibition at 2000 g/ha (Veronica polita): 100%
CCn1nc(C2CC2)cc1-c1nnc(Cl)cc1O [Compound 44]	10 (Level 10: completely dead)	10 (Level 10: completely dead)	10 (Level 10: completely dead)	10 (Level 10: completely dead)	
Cc1cc(-c2nnc(Cl)cc2OC(C)OC(=O)OC(C)C)n(C)n1 (stereo not drawn) [Compound 1-6]					inhibition at 2000 g/ha (Amaranthus retroflexus): 100%; inhibition at 2000 g/ha (Chenopodiaceae): 100%; inhibition at 2000 g/ha (Setaria viridis): 100%; inhibition at 2000 g/ha (Veronica polita): 100%
N#Cc1ccc(-c2nnc(Cl)cc2O)s1 [Compound 33]	10 (Level 10: completely dead)	10 (Level 10: completely dead)	10 (Level 10: completely dead)	10 (Level 10: completely dead)	weed control effect (activity level), Rorippa indica, comparison experiment (Rorippa indica): 10; weed control effect (activity level), Veronica polita, comparison experiment (Veronica polita): 10
CC(=O)n1nccc1-c1nnc(Cl)cc1O [Compound 130]	10 (Level 10: completely dead)	10 (Level 10: completely dead)	10 (Level 10: completely dead)	10 (Level 10: completely dead)	
Cn1nc(-c2ccccc2)cc1-c1nnc(Cl)cc1O [Compound 73]	10 (Level 10: completely dead)	10 (Level 10: completely dead)	10 (Level 10: completely dead)	10 (Level 10: completely dead)	
Cn1nc(C(F)F)cc1-c1nnc(Cl)cc1O [Compound 74]	10 (Level 10: completely dead)	10 (Level 10: completely dead)	10 (Level 10: completely dead)	10 (Level 10: completely dead)	
Cc1ccc(-c2nnc(Cl)cc2O)s1 [Compound 27]	10 (Level 10: completely dead)	10 (Level 10: completely dead)	10 (Level 10: completely dead)	10 (Level 10: completely dead)	
Cn1ncc(Br)c1-c1nnc(Cl)cc1O [Compound 78]	10 (Level 10: completely dead)	10 (Level 10: completely dead)	10 (Level 10: completely dead)	10 (Level 10: completely dead)	
Cn1nc(C2CC2)cc1-c1nnc(C(F)(F)C(F)(F)F)cc1O [Compound 45]	10 (Level 10: completely dead)	10 (Level 10: completely dead)	10 (Level 10: completely dead)	10 (Level 10: completely dead)	
CCSC(=O)Oc1cc(Cl)nnc1-c1cc(C)nn1C [Compound 1-8]					inhibition at 2000 g/ha (Amaranthus retroflexus): 100%; inhibition at 2000 g/ha (Chenopodiaceae): 100%; inhibition at 2000 g/ha (Setaria viridis): 100%; inhibition at 2000 g/ha (Veronica polita): 100%
Cn1ncc(C2CC2)c1-c1nnc(Cl)cc1O [Compound 82]	10 (Level 10: completely dead)	10 (Level 10: completely dead)	10 (Level 10: completely dead)	10 (Level 10: completely dead)	
Cn1nc(Cl)cc1-c1nnc(Cl)cc1O [Compound 48]	10 (Level 10: completely dead)	10 (Level 10: completely dead)	10 (Level 10: completely dead)	10 (Level 10: completely dead)	
Cn1cncc1-c1nnc(Cl)cc1O [Compound 4]	10 (Level 10: completely dead)	10 (Level 10: completely dead)	10 (Level 10: completely dead)	10 (Level 10: completely dead)	
CCCCCCCCSC(=O)Oc1cc(Cl)nnc1-c1ccccc1 [Control Compound B, reference compound]					weed control effect (activity level), Rorippa indica, comparison experiment (Rorippa indica): 3 (Level 3: above 30% growth inhibition rate); weed control effect (activity level), Setaria viridis, comparison experiment (Setaria viridis): 2 (Level 2: above 20% growth inhibition rate); weed control effect (activity level), Veronica polita, comparison experiment (Veronica polita): 5 (Level 5: above 50% growth inhibition rate); weed control effect (activity level), Digitaria sanguinalis, comparison experiment (Digitaria sanguinalis): 0; weed control effect (activity level), Echinochloa crus-galli, comparison experiment (Echinochloa crus-galli): 0
Cn1ccnc1-c1nnc(Cl)cc1O [Compound 3]	10 (Level 10: completely dead)	10 (Level 10: completely dead)	10 (Level 10: completely dead)	10 (Level 10: completely dead)	
